# Publication PMC6709486, “Safety, Tolerability, Pharmacokinetics, and Drug Interaction Potential of SPR741, an Intravenous Potentiator, after Single and Multiple Ascending Doses and When Combined with β-Lactam Antibiotics in Healthy Subjects” (Antimicrobial Agents and Chemotherapy, 2019)
# Peptide text beside a SMILES is read from it.
# How the values were obtained:
# clinical = conditions: human, in vivo, iv
# Source text: The SAD/MAD study was a phase 1, double-blind, placebo-controlled, multicohort trial. Part 1 used a SAD design according to which subjects received a single i.v. dose of SPR741. Part 2 used a MAD design in which subjects received multiple daily i.v. doses of SPR741 over a period of 14 days. The objective was to assess the safety/tolerability and PK of single and multiple ascending doses of SPR741. In the SAD phase, healthy volunteers were screened within 28 days prior to dosing. Subjects were admitted to the clinical facility on day −1 for up to 3 days. A single dose of SPR741 (or placebo) was administered on day 1. Following completion of all safety assessments and sampling for PK analyses, subjects were discharged on day 2. A follow-up visit occurred 5 to 7 days after day 1 dosing. In the MAD phase, all subjects were admitted to the clinical facility on day −1. Dosing commenced on the morning of day 1. Three doses were administered daily at approximately 8 (±0.5)-h intervals for a total of 14 consecutive days. The last dose was administered on the morning of day 14. Blood and urine samples were collected for assessment of PK parameters. Subjects were discharged on day 16 following completion of all PK sample collection and safety assessments, and a follow-up visit occurred 5 to 7 days after the last dose. The MAD phase of the study began after safety and tolerability were confirmed in cohort 5, and the appropriate dose level was established. Two subjects received placebo, and six subjects received SPR741 doses of 50, 150, 400 or 600 mg q8h for 14 days. In the first cohort of the MAD phase (50 mg q8h), two subjects (sentinels) began dosing with SPR741 or placebo 72 h prior to dosing of the remaining subjects in this cohort. The remaining six subjects were dosed only after no safety concerns were identified by the Safety Monitoring Group at 72 h. […]
# [1] = set-up: species or system human; conditions: in vivo
# Source text: The SAD/MAD study was a phase 1, double-blind, placebo-controlled, multicohort trial. Part 1 used a SAD design according to which subjects received a single i.v. dose of SPR741. Part 2 used a MAD design in which subjects received multiple daily i.v. doses of SPR741 over a period of 14 days. The objective was to assess the safety/tolerability and PK of single and multiple ascending doses of SPR741. In the SAD phase, healthy volunteers were screened within 28 days prior to dosing. Subjects were admitted to the clinical facility on day −1 for up to 3 days. A single dose of SPR741 (or placebo) was administered on day 1. Following completion of all safety assessments and sampling for PK analyses, subjects were discharged on day 2. A follow-up visit occurred 5 to 7 days after day 1 dosing. In the MAD phase, all subjects were admitted to the clinical facility on day −1. Dosing commenced on the morning of day 1. Three doses were administered daily at approximately 8 (±0.5)-h intervals for a total of 14 consecutive days. The last dose was administered on the morning of day 14. Blood and urine samples were collected for assessment of PK parameters. Subjects were discharged on day 16 following completion of all PK sample collection and safety assessments, and a follow-up visit occurred 5 to 7 days after the last dose. In the SAD phase, subjects were randomized to one of eight cohorts that received doses of 5, 15, 50, 100, 200, 400, 600 or 800 mg of SPR741. Within each cohort, two subjects received placebo, and six received SPR741. In cohort 1, two subjects (sentinels) were dosed with SPR741 or placebo 48 h prior to dosing of the remaining subjects. The remaining six subjects were dosed only after no safety concerns were identified in the sentinel subjects. After each dose cohort had completed administration of study drug and evaluation, a Safety Monitoring Group reviewed blinded cumulative safety data (including day 5 to day 7 follow-up data) to confirm the safety and tolerability of SPR741. For both studies, safety assessments included clinical laboratory testing (hematology, coagulation, serum chemistry, renal chemistry, and urinalysis), vital signs (blood pressure, heart rate, body temperature, and respiratory rate), physical examination, and triplicate 12-lead ECGs. […] Adverse events were recorded at each study visit.
structure (smiles),measurement,setting,value
"CC(=O)N[C@H](C(=O)N[C@H](CO)C(=O)N[C@H]1CCNC(=O)[C@H]([C@@H](C)O)NC(=O)[C@H](CCN)NC(=O)[C@H](CCN)NC(=O)[C@H](CC(C)C)NC(=O)[C@@H](Cc2ccccc2)NC(=O)[C@H](CCN)NC1=O)[C@@H](C)O [SPR741] (HELM PEPTIDE1{[ac].T.[dS].[Dab].[Dab].[dF].L.[Dab].[Dab].T}$PEPTIDE1,PEPTIDE1,4:R3-10:R2$$$V2.0)",Tmax,clinical,1 h
same,clearance,clinical; CL,89 mL/min
same,half-life,"clinical; mean (apparent terminal elimination) half-life, day 1",2.2 h
same,TEAE classified as a renal or urinary disorder,[1],No subjects
same,abnormal serum creatinine value,[1],no subject
same,headache: No. (%) of subjects,[1],4 (8%)
same,severe TEAE or serious adverse event,[1],No subject
